# pKi: −log10 of the molar value. Values joined by “and” are separate entries in the source; they are usually repeats but may differ in a detail not shown here. Equal entries are not always repeated. Where two headings read alike, the source gives them in different places. Positions of bridges follow the written chain, without caps; N, C: chain ends. Non-standard residues stand in square brackets, D forms with d. Residues, ends and D or L forms follow the SMILES beside them. *: point of attachment. X1 = N=C(N)NCCC[C@H]1C(=O)N[C@H](C(N)=O)CN1*; dNle = CCCC[C@@H](N)C(=O)O; Heptanoyl = CCCCCCC(=O)*
# Legend:
# [1] = cited from earlier work
# human NPR-B = molecular target: T1, human NPR-B (Homo sapiens, UniProt P20594); test: cGMP generation in HEK293 cells expressing receptor; format: cell-based; details: for Effect on cGMP generation in hNPR-B functional assay: concentrations up to 10 µM; for Emax, cGMP generation, hNPR-B: mean ± SEM
# T1 sequence (P20594 23-1047): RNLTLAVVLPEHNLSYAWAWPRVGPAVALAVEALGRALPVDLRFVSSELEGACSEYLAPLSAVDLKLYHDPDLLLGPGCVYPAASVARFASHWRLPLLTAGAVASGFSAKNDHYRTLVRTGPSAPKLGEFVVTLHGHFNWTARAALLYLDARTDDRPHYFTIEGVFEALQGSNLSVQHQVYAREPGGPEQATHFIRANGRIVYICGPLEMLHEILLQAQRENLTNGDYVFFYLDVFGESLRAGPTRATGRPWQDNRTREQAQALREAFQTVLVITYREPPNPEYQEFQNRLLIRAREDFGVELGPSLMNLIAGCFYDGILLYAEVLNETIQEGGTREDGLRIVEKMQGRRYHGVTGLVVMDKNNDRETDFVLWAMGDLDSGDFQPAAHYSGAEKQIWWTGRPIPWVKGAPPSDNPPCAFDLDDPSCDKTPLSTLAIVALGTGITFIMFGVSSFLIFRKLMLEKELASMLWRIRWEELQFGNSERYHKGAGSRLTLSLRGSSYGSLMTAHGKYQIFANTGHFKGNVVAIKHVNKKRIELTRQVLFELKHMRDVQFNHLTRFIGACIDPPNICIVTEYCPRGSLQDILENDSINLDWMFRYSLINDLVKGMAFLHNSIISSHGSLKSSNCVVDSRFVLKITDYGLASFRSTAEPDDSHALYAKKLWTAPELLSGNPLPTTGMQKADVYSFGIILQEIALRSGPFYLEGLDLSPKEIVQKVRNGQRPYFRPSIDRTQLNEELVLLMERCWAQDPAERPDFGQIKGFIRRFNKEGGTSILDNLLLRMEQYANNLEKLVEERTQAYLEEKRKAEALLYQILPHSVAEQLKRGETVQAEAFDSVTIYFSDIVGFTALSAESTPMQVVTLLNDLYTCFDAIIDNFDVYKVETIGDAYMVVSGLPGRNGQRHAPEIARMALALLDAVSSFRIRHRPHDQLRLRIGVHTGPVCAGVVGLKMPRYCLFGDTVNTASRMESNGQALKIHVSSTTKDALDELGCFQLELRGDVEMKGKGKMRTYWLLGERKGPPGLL
# [2] = tested on: 75 diverse molecular targets; test: CEREP standard profiling screen; format: binding; details: 1 µM
# kappa opioid receptor = test: CEREP profiling screen and follow-up Ki; format: binding; details: read-out: Ki, kappa; follow-up study
# [3] = molecular target: non-selective somatostatin receptor (sst); test: CEREP profiling screen and follow-up Ki; format: binding; details: read-out: Ki, sst; follow-up study
# [4] = tested on: bronchoconstrictor response to aerosolized methacholine; test: Methacholine-induced bronchoconstriction in anaesthetized guinea pigs; format: in vivo, guinea pig; details: for Maximum inhibition of methacholine bronchoconstrictor response: 1000 µg/kg i.t., 15-min pretreatment, n = 6, mean ± SEM; for Inhibition of methacholine bronchoconstriction at 60 min: i.t., 60-min pretreatment, all doses
# [5] = tested on: mean arterial blood pressure and heart rate; test: Cardiovascular parameters in anaesthetized guinea pigs; details: i.t.; PL-3994 1–1000 µg/kg, salbutamol 1000 µg/kg; n = 6
# rat trachea = test: Relaxation of carbachol-precontracted rat trachea; details: 100 µM; carbachol 1 µM; n = 6; mean ± SEM
SMILES,Effect on cGMP generation in hNPR-B functional assay (human NPR-B),Maximum inhibition of methacholine bronchoconstrictor response [4],Inhibition of methacholine bronchoconstriction at 60 min [4],Effect on heart rate compared to baseline [5],Effect on mean arterial blood pressure compared to baseline [5],"Emax, cGMP generation, hNPR-B (human NPR-B)",other results
"CC[C@H](C)[C@@H]1NC(=O)[C@H](CCCNC(=N)N)NC(=O)[C@H](CC(=O)O)NC(=O)[C@H](CC(C)C)NC(=O)[C@H](CCCCN)NC(=O)[C@H](CC(C)C)NC(=O)CNC(=O)[C@H](Cc2ccccc2)NC(=O)[C@@H](NC(=O)CNC(=O)[C@H](CCCCN)NC(=O)[C@H](CO)NC(=O)[C@H](CC(C)C)NC(=O)CN)CSSC[C@@H](C(=O)O)NC(=O)CNC(=O)[C@H](CC(C)C)NC(=O)CNC(=O)[C@H](CO)NC(=O)[C@H](CCSC)NC(=O)[C@H](CO)NC(=O)CNC1=O [CNP, C-type natriuretic peptide]",,,,,,,Human plasma half-life ([1]; ref [10]): about 2 min
"CCCCCCC(=O)N[C@H]1CSSC[C@@H](C(=O)N[C@@H](Cc2ccc(O)cc2)C(=O)N2C[C@@H](C(N)=O)NC(=O)[C@@H]2CCCNC(=N)N)NC(=O)[C@H](CO)NC(=O)[C@H]([C@@H](C)CC)NC(=O)[C@H](CCCNC(=N)N)NC(=O)[C@H](CC(=O)O)NC(=O)[C@@H](CCCC)NC(=O)[C@H](CCCNC(=N)N)NC(=O)CNC(=O)[C@@H](C)NC(=O)[C@H](Cc2ccccc2)NC(=O)[C@H](Cc2c[nH]cn2)NC1=O [PL-3994, Hept-cyclo(Cys-His-Phe-D-Ala-Gly-Arg-D-Nle-Asp-Arg-Ile-Ser-Cys)-Tyr-[Arg-mimetic]-NH2] (Heptanoyl-CHF[dA]GR[dNle]DRISCY-X1; disulfide 1-12)",without effect,70%,maintained,no significant effect,no significant effect,,"EC50, cGMP generation, hNPR-B (human NPR-B; HEK293 cells, 0.5 mM IBMX, 15 min, cGMP HTRF): Not calculable; Effect against 75 diverse molecular targets [2]: without significant effect; pKi (kappa opioid receptor): 6.06; pKi [3]: 5.38; Inhibition of methacholine bronchoconstriction at 120 min ([4]; 10 µg/kg and 100 µg/kg i.t.): extended to 120 min post-administration, although it was reduced; Inhibition of methacholine bronchoconstriction at 240 min ([4]; 10 µg/kg and 100 µg/kg i.t., 240-min pretreatment): absent"
"CC[C@H](C)[C@@H]1NC(=O)[C@H](CCCNC(=N)N)NC(=O)[C@H](CC(=O)O)NC(=O)[C@H](CCSC)NC(=O)[C@H](CCCNC(=N)N)NC(=O)CNC(=O)CNC(=O)[C@H](Cc2ccccc2)NC(=O)[C@@H](NC(=O)[C@H](CO)NC(=O)[C@H](CO)NC(=O)[C@H](CCCNC(=N)N)NC(=O)[C@H](CCCNC(=N)N)NC(=O)[C@H](CC(C)C)NC(=O)[C@@H](N)CO)CSSC[C@@H](C(=O)N[C@@H](CC(N)=O)C(=O)N[C@@H](CO)C(=O)N[C@@H](Cc2ccccc2)C(=O)N[C@@H](CCCNC(=N)N)C(=O)N[C@@H](Cc2ccc(O)cc2)C(=O)O)NC(=O)CNC(=O)[C@H](CC(C)C)NC(=O)CNC(=O)[C@H](CO)NC(=O)[C@H](CCC(N)=O)NC(=O)[C@H](C)NC(=O)CNC1=O [hANP, atrial natriuretic peptide]",,,,,,6 ± 0.8 % hCNP,"Human plasma half-life ([1]; human, in vivo): about 2 min"
"CC[C@H](C)[C@@H]1NC(=O)[C@H](CCCNC(=N)N)NC(=O)[C@H](CC(=O)O)NC(=O)[C@H](CCSC)NC(=O)[C@H](CCCCN)NC(=O)[C@H](CCCNC(=N)N)NC(=O)CNC(=O)[C@H](Cc2ccccc2)NC(=O)[C@@H](NC(=O)CNC(=O)[C@H](CO)NC(=O)CNC(=O)[C@H](CCC(N)=O)NC(=O)[C@@H](NC(=O)[C@H](CCSC)NC(=O)[C@H](CCCCN)NC(=O)[C@@H]2CCCN2C(=O)[C@@H](N)CO)C(C)C)CSSC[C@@H](C(=O)N[C@@H](CCCCN)C(=O)N[C@H](C(=O)N[C@@H](CC(C)C)C(=O)N[C@@H](CCCNC(=N)N)C(=O)N[C@@H](CCCNC(=N)N)C(=O)N[C@@H](Cc2c[nH]cn2)C(=O)O)C(C)C)NC(=O)CNC(=O)[C@H](CC(C)C)NC(=O)CNC(=O)[C@H](CO)NC(=O)[C@H](CO)NC(=O)[C@H](CO)NC(=O)[C@H](CO)NC1=O [hBNP, brain natriuretic peptide]",no functional activity,,,,,9 ± 1 % hCNP,
CC(C)(C)NCC(O)c1ccc(O)c(CO)c1 (stereo not drawn) [salbutamol],,87 ± 2% and 87%,maintained,no significant effect,no significant effect,,Relaxation of carbachol-precontracted rat trachea (rat trachea): 70.0 ± 10.4 % relaxation

# — publication PMC4070431 (Pulmonary pharmacology & therapeutics, 2012)
